Source: ChEMBL document CHEMBL3407442, “Synthesis and biological evaluation of α-aryl-α-tetralone derivatives as hepatitis C virus inhibitors” (Eur J Med Chem, 2015)

Columns and labels:
[1] = test system: Hepatitis C virus; experiment: Antiviral activity against HCV genotype 1b infected in human Huh7/Rep-Feo1b replicon cells assessed as inhibition of viral viral RNA replication at 50 uM incubated for 48 hrs by luciferase reporter gene assay; type: functional, Hepacivirus hominis; details: Huh-7, 48 h
[2] = test system: Hepatitis C virus; experiment: Antiviral activity against HCV genotype 2a infected in human Huh7.5-FGR-JC1-Rluc2A replicon cells assessed as inhibition of viral viral RNA replication at 50 uM incubated for 48 hrs by luciferase reporter gene assay; type: functional, Hepacivirus hominis; details: Huh-7, 48 h
[3] = Cytotoxicity against human Huh7.5 cells by MTS assay; type: cell-based, Huh-7
[4] = test system: Hepatitis C virus; experiment: Antiviral activity against HCV genotype 2a infected in human Huh7.5-FGR-JC1-Rluc2A replicon cells assessed as inhibition of viral viral RNA replication incubated for 48 hrs by luciferase reporter gene assay; type: functional, cell-based, Hepacivirus hominis; details: Huh-7, 48 h
[5] = Selectivity index, ratio of CC50 for human Huh7.5 cells to EC50 for HCV genotype 2a infected in human Huh7.5-FGR-JC1-Rluc2A replicon cells; parameters: species or system Huh-7
[6] = test system: Hepatitis C virus; experiment: Antiviral activity against HCV genotype 1b infected in human Huh7/Rep-Feo1b replicon cells assessed as inhibition of viral viral RNA replication incubated for 48 hrs by luciferase reporter gene assay; type: functional, cell-based, Hepacivirus hominis; details: Huh-7, 48 h
[7] = Selectivity index, ratio of CC50 for human Huh7.5 cells to EC50 for HCV genotype 1b infected in human Huh7/Rep-Feo1b replicon cells; parameters: species or system Huh-7

Row | EC50 [4] | EC50 [6] | Structure (SMILES) | inhibition at 50 µM [1] | inhibition at 50 µM [2] | CC50 [3] | Ratio CC50/EC50 [5] | Ratio CC50/EC50 [7]
1 | 10.8 µM |  | COc1cccc2c1CCC(c1ccccc1O)C2=O (centres undefined) | 26.1% | 86% | 111 µM | 10.2 | 
2 | 3.6 µM | 29.5 µM | COc1ccc2c(c1)C(=O)C(c1ccccc1OC)CC2 (centres undefined) | 85.4% | 91.8% | 111 µM | 30.8 | 3.7
3 | 14.3 µM | 50.1 µM | COc1ccccc1C1CCc2ccccc2C1=O (centres undefined) | 48.4% | 84.4% | 117 µM | 8.2 | 2.3
4 | 10.8 µM | 48.5 µM | COc1ccccc1C1CCc2c(OC)cccc2C1=O (centres undefined) | 51.7% | 86.6% | > 200 µM | >18.5 | >4.1
5 | 4.8 µM | 42.5 µM | COc1cc2c(cc1OC)C(=O)C(c1ccccc1OC)CC2 (centres undefined) | 60.2% | 79.9% | 126 µM | 26.2 | 2.9
6 | 11 µM | 44.3 µM | COc1ccc(C2CCc3ccccc3C2=O)c(OC)c1 (centres undefined) | 55.6% | 83.9% | 63.6 µM | 5.7 | 1.4
7 | 1.5 µM | 10.6 µM | COc1ccc2c(c1)CCC(c1ccccc1OC)C2=O (centres undefined) | 86.4% | 88.8% | 152 µM | 101.4 | 14.3

More lines, now with the values behind:

Row | Structure (SMILES) | EC50 [4] | EC50 [6] | inhibition at 50 µM [1] | inhibition at 50 µM [2] | CC50 [3] | Ratio CC50/EC50 [5] | Ratio CC50/EC50 [7]
8 | COc1ccccc1C1CCc2c(O)ccc(OC)c2C1=O (centres undefined) |  |  | 41.2% | 44% | > 200 µM |  | 
9 | COc1ccc(C2CCc3ccc(OC)cc3C2=O)c(OC)c1 (centres undefined) | 15 µM | 14.3 µM | 95.2% | 97.6% | < 50 µM | <3.3 | <3.5
10 | COc1ccc(C2CCc3cc(OC)c(OC)cc3C2=O)c(OC)c1 (centres undefined) | 4.3 µM | 1.8 µM | 89.6% | 86.8% | > 200 µM | >46.1 | > 111
11 | COc1ccc(C2CCc3c(OC)ccc(OC)c3C2=O)c(OC)c1 (centres undefined) | 21.5 µM | 8.2 µM | 73.8% | 86.2% | < 50 µM | <2.3 | <6
12 | COc1ccc2c(c1)CCC(c1ccc(OC)cc1OC)C2=O (centres undefined) | 3.3 µM | 7.5 µM | 89.5% | 93.4% | < 50 µM | <15.3 | <6.6
13 | COc1ccc(O)c2c1C(=O)C(c1ccccc1OCc1ccccc1)CC2 (centres undefined) | 4.4 µM | 6.21 µM | 99.1% | 98% | < 50 µM | <11.3 | <8
14 | COc1ccc(C2CCc3c(OC)cccc3C2=O)c(OC)c1 (centres undefined) | 3.2 µM | 12.8 µM | 96.5% | 99.5% | 104 µM | 32.6 | 8.2
15 | COc1ccccc1C1CCc2c(OC)ccc(OC)c2C1=O (centres undefined) | 6.8 µM | 8 µM | 80.6% | 88.8% | > 200 µM | >29.5 | >24.9
